Experimental data: paper PMC13252604, “First Generation Proteolysis Targeting Chimeras (PROTACs) for the Treatment of Progeria” (Advanced Science, 2026)

Target: T1, ternary complex between progerin, compound 2 and CRBN (Mus musculus, UniProt P48678+Q8C7D2, DEL608-657)
T1 construct: endogenous in cells; host or cells: Lmna G609G/G609G mouse fibroblasts
Assay: Co-immunoprecipitation of ternary complex (anti-CRBN IP, anti-progerin blot)
Format: binding
Settings: 5 µM, 6 h, Lmna^G609G/G609G fibroblasts
From the text: (A) Input IP .LM123L T-!=> V,!=>
MW Veh Cpd 2 Cpd 2 Veh !!!!!"#$$#B -45665 T4--8 -4;?,;
Progerin !!!!!E#)*+,- ,V4:-Ise::::: :etpoooomX,?4?V:enst9mmqo,848; !?#$B?CDEFCBG+I-+G.BLG+ […]
!!!!!*+,- 84;66L<-,VI9e::::::esnnsmqmXV4-;VL<-,?:estm9XpoX?4T-?L<-,8 FFFFF0BNNB$ :em9Xn […]
IgG heavy chain Iqep:m:p ne:qmppo:m :esmpqtmpn FFFFFSB#T89:I9em:m […]
50- Iqe9mt:: :eoX9ppnnm :eoqpq9s9p X9YF8=F>.-B2?E+FE??+E?@BBCA
FFFFF0BNNB$ rrrFNBF:eqoqs
Cpd 2 Veh FFFFFSB#T89:rrr […]
Vehicle .LM123L T-!=>(%C" V,!=> […]
50- !!!!!C#' -4TT8VLamin C -4T:T; (%$$-4-:?5T '()*+
!!!!!E#)*+,- ,V4:-β-Actin ,?4?V ,848; D(%
37- !!!!!*+,- 84;66L<-,V V4-;VL<-,? ?4T-?L<-,8 ,-)*+ […]
Abundance Ratio (log2): Ve h / Cpd 2
Supporting Figure S2. Ternary complex formation, progerin engagement and global selectivity of compound 2. (A) Progeroid […]/G609G fibroblasts treated with vehicle (0.1% DMSO) or compound 2 (5 µM) were subjected to immunoprecipitation with an anti-CRBN antibody and then immunoblotted with an anti-progerin antibody. Bar graph represents mean±sem of 2 independent experiments. (B) Representative progerin immunoblotting of the soluble fraction of LmnaG609G/G609G cell homogenates treated with […]
Cells were harvested by trypsin, centrifuged and washed with PBS. […] The mixture was then allowed to incubate for 30min at 37 °C in the dark and samples were finally analysed by FACScalibur (Becton Dickinson) flow cytometer […]

T1 sequence (P48678 with tags, fused parts or gaps DEL608-657 limits assumed): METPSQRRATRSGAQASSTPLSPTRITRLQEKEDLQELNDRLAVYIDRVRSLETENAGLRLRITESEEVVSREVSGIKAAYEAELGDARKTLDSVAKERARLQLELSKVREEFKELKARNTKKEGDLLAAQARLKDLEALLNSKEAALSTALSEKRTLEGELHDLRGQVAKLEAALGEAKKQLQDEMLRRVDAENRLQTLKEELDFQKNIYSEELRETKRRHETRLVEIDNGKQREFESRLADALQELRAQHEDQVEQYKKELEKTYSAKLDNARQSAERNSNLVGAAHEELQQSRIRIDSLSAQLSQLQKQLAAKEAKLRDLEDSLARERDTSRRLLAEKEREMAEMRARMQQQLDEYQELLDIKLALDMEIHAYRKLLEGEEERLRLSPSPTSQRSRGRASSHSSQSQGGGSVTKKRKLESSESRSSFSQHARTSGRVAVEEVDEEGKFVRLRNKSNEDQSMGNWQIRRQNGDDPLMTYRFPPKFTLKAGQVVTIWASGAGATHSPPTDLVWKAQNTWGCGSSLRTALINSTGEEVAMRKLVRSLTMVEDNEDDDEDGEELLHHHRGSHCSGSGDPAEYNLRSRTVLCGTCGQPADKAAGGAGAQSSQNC
T1 sequence (Q8C7D2 whole entry, stated change not applied): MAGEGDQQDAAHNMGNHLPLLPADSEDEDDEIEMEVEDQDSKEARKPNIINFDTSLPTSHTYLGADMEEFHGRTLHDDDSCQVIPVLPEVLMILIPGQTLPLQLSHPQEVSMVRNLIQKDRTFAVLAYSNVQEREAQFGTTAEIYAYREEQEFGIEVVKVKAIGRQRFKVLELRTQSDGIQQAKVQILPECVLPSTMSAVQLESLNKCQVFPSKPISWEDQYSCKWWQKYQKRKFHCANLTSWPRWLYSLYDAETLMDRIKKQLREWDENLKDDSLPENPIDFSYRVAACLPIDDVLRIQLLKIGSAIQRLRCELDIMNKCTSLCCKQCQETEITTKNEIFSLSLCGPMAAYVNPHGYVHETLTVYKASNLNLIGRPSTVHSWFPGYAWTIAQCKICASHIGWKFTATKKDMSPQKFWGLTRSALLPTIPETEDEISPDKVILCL
T1 sequence (Q3U1J4 whole entry partner): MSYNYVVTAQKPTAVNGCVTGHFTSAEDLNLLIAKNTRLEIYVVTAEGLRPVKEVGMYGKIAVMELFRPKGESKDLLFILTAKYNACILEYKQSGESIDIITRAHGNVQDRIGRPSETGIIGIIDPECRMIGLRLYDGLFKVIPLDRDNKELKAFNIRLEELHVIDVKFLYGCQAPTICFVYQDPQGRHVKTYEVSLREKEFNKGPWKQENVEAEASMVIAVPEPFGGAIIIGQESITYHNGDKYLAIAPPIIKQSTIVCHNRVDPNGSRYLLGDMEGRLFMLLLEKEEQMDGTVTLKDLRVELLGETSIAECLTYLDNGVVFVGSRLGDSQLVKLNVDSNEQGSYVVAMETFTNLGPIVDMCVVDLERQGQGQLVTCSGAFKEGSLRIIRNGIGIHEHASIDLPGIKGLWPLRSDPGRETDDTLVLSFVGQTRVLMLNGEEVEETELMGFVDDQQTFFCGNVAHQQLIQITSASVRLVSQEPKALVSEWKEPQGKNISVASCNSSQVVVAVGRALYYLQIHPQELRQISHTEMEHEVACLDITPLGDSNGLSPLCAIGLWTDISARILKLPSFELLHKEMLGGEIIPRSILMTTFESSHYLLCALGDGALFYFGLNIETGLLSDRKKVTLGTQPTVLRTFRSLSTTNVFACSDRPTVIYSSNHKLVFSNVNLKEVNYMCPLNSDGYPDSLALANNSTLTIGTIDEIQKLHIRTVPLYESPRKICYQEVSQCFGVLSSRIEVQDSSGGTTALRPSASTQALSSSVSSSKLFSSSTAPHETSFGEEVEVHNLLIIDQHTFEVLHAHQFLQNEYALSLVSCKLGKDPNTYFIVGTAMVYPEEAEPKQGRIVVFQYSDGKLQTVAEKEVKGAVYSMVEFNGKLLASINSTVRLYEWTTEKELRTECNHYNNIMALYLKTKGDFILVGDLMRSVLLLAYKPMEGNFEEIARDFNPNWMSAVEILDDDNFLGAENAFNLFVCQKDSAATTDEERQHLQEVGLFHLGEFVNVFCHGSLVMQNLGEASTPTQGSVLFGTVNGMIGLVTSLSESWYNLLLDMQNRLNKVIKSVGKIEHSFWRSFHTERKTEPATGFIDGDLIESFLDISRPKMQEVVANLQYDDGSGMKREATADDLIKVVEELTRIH

CC1(C)Oc2cc3oc(=O)ccc3cc2C[C@@H]1OC(=O)CCCCCNc1cccc2c1C(=O)N(C1CCC(=O)NC1=O)C2=O (stereo partly shown) [compound 2]
formation of ternary complex with progerin and CRBN by immunoprecipitation: confirmed the formation of the ternary complex
